Assay results: US11098010B2 (priority 2017, dated 2021)
Counter-ions that a name gives are not always drawn.

What follows are compounds tested on HBV rcDNA in HepDE19 cells (assay: HepDE19 assay with bDNA quantitation of HBV rcDNA). Details: HepDE19 cells, inhibition of rcDNA formation, 7 day incubation, top concentration 25 μM; read-out: DE-19 bDNA EC50.
Format: cell-based, hepatitis B virus (HBV)

Q: How did the EC50 turn out when COC(=O)NC1c2cccc(C(=O)Nc3ccc(F)c(F)c3)c2CC1O (stereo not drawn) [Compound 52, O-methyl, N-(4-((3,4-difluorophenyl)carbamoyl)-2-hydroxy-2,3-dihydro-1H-inden-1-yl) carbamate] was run?
A: 19 µM

Q: For CNC(=O)NC1(C)CCc2c(C(=O)Nc3ccc(F)c(Cl)c3)ccc(F)c21 (single isomer, unassigned) [Compound 223, N-(3-chloro-4-fluorophenyl)-7-fluoro-1-methyl-1-(3-methylureido)-2,3-dihydro-1H-indene-4-carboxamide], which EC50 is on record?
A: 4.52 µM

Q: With O=C(N[C@H]1CCc2c(C(=O)Nc3ccc(F)c(Cl)c3)ccc(F)c21)OCc1ncn(C2CCCCO2)n1 (stereo partly drawn) [Compound 248, O-(1-(tetrahydro-2H-pyran-2-yl)-1H-1,2,4-triazol-3-yl)methyl, N-((S)-4-((3-chloro-4-fluorophenyl)carbamoyl)-7-fluoro-2,3-dihydro-1H-inden-1-yl) carbamate] as the compound, how does the EC50 read?
A: 0.15 µM

Same assay, conditions: Hepatitis B virus, HepDE19, 168 h, HepDE19 cells, inhibition of rcDNA formation, 7 day incubation, top concentration 25 μM; read-out: DE-19 bDNA EC50

Q: Which EC50 does the source give for O=C(N[C@H]1CCc2c(C(=O)Nc3ccc(F)c(Cl)c3)ccc(F)c21)OCc1cccc[n+]1[O-] [Compound 67, (S)-2-((((4-((3-Chloro-4-fluorophenyl)carbamoyl)-7-fluoro-2,3-dihydro-1H-inden-1-yl)carbamoyl)oxy)methyl)pyridine 1-oxide] here?
A: 0.31 µM

Q: For O=C(Nc1ccc(F)c(Cl)c1)c1ccc(F)c2c1CC[C@@H]2NC(=O)C1CC1 [Compound 179, (S)—N-(3-Chloro-4-fluorophenyl)-1-(cyclopropanecarboxamido)-7-fluoro-2,3-dihydro-1H-indene-4-carboxamide], which EC50 is on record?
A: 0.14 µM

Q: With CC(=O)N[C@H]1CCc2c(C(=O)Nc3ccc(F)c(Cl)c3)ccc(F)c21 [Compound 77, (S)-1-Acetamido-N-(3-chloro-4-fluorophenyl)-7-fluoro-2,3-dihydro-1H-indene-4-carboxamide] as the compound, how does the EC50 read?
A: 0.2 µM

Q: For O=C(N[C@H]1CCc2c(C(=O)Nc3ccc(F)c(Cl)c3)ccc(F)c21)c1nccs1 [Compound 127, (S)—N-(4-((3-Chloro-4-fluorophenyl)carbamoyl)-7-fluoro-2,3-dihydro-1H-inden-1-yl)thiazole-2-carboxamide], which EC50 is on record?
A: 0.36 µM

Q: CN1Cc2c(C(=O)Nc3ccc(F)c(Cl)c3)cccc2S1(=O)=O [Compound 277, N-(3-Chloro-4-fluorophenyl)-2-methyl-2,3-dihydrobenzo[d]isothiazole-4-carboxamide 1,1-dioxide] was tested. Which EC50 did it give?
A: 2.2 µM

Q: CCC(=O)N[C@H]1CCc2c(C(=O)Nc3ccc(F)c(Cl)c3)ccc(F)c21 [Compound 158, (S)-N-(3-chloro-4-fluorophenyl)-7-fluoro-1-propionamido-2,3-dihydro-1H-indene-4-carboxamide] was tested. Which EC50 did it give?
A: 0.81 µM

Q: Which EC50 does the source give for Cc1cc(NC(=O)c2ccc(F)c3c2OCC3NC(=O)OCc2ccccn2)ccc1F (stereo not drawn) [Compound 205, O-Pyridin-2-ylmethyl, N-(4-fluoro-7-((4-fluoro-3-methylphenyl)carbamoyl)-2,3-dihydrobenzofuran-3-yl) carbamate] here?
A: 3.7 µM

Q: For COCCS(=O)(=O)N[C@H]1CCc2c(C(=O)Nc3ccc(F)c(Cl)c3)ccc(F)c21 [Compound 182, (S)—N-(3-Chloro-4-fluorophenyl)-7-fluoro-1-((2-methoxyethyl)sulfonamido)-2,3-dihydro-1H-indene-4-carboxamide], which EC50 is on record?
A: 0.59 µM

Q: Which EC50 does the source give for O=C(NC1CC1)N[C@H]1CCc2c(C(=O)Nc3ccc(F)c(Cl)c3)ccc(F)c21 [Compound 209, (S)—N-(3-Chloro-4-fluorophenyl)-1-(3-cyclopropylureido)-7-fluoro-2,3-dihydro-1H-indene-4-carboxamide] here?
A: 0.33 µM

Q: CC(C)S(=O)(=O)N[C@H]1CCc2c(C(=O)Nc3ccc(F)c(Cl)c3)ccc(F)c21 [Compound 238, (S)—N-(3-Chloro-4-fluorophenyl)-7-fluoro-1-((1-methylethyl)sulfonamido)-2,3-dihydro-1H-indene-4-carboxamide] was tested. Which EC50 did it give?
A: 0.19 µM

Q: O=C(N[C@H]1CCc2c(C(=O)Nc3ccc(F)c(Cl)c3)ccc(F)c21)OCCO [Compound 141, O-2-Hydroxyethyl, N—(S)-(4-((3-chloro-4-fluorophenyl)carbamoyl)-7-fluoro-2,3-dihydro-1H-inden-1-yl) carbamate] was tested. Which EC50 did it give?
A: 0.18 µM

Q: CC(C)N1Cc2c(C(=O)Nc3ccc(F)c(Cl)c3)cccc2S1(=O)=O [Compound 278, N-(3-Chloro-4-fluorophenyl)-2-isopropyl-2,3-dihydrobenzo[d]isothiazole-4-carboxamide 1,1-dioxide] was tested. Which EC50 did it give?
A: 1.3 µM

Q: How did the EC50 turn out when COC(=O)N[C@H]1CCc2c(C(=O)Nc3ccc(F)c(Cl)c3)ccc(F)c21 [Compound 19, O-Methyl, N—(S)-(4-((3-chloro-4-fluorophenyl)carbamoyl)-7-fluoro-2,3-dihydro-1H-inden-1-yl) carbamate] was run?
A: 0.17 µM

Q: Which EC50 does the source give for COC(=O)O[C@H]1CCc2c(C(=O)Nc3ccc(F)c(Cl)c3)ccc(F)c21 [Compound 123, (S)-4-(3-Chloro-4-fluorophenylcarbamoyl)-7-fluoro-2,3-dihydro-1H-inden-1-yl Methyl Carbonate] here?
A: 0.76 µM

Same assay, conditions: Hepatitis B virus, HepDE19, 168 h, read-out: DE-19 bDNA EC50 (μM), HepDE19 cells, inhibition of rcDNA formation, 7 day incubation, top concentration 25 μM

Q: O=C(N[C@H]1CCc2c(C(=O)Nc3ccc(F)c(Cl)c3)ccc(F)c21)OCC1CC(F)(F)CN1 (stereo partly drawn) [Compound 56, O-(4,4-Difluoropyrrolidin-2-yl)methyl, N—((S)-4-((3-chloro-4-fluorophenyl)carbamoyl)-7-fluoro-2,3-dihydro-1H-inden-1-yl) carbamate Hydrochloride] was tested. Which EC50 did it give?
A: 0.5 µM

Q: Which EC50 does the source give for Cc1ccnc(N[C@H]2CCc3c(C(=O)Nc4ccc(F)c(Cl)c4)ccc(F)c32)n1 [Compound 160] here?
A: 0.25 µM

Q: How did the EC50 turn out when Cc1cc(NC(=O)c2cccc3c2CC[C@@H]3NC(=O)OC[C@H]2CCC(=O)N2)ccc1F [Compound 24, O—((R)-5-Oxopyrrolidin-2-yl)methyl, N—((S)-4-((4-fluoro-3-methylphenyl)carbamoyl)-2,3-dihydro-1H-inden-1-yl) carbamate] was run?
A: 1.5 µM

Q: Which EC50 does the source give for COC(=O)N[C@H]1CCc2c(C(=O)Nc3ccc(F)c(C)c3)ccc(F)c21 [Compound 11, O-Methyl, N—(S)-(7-fluoro-4-((4-fluoro-3-methylphenyl)carbamoyl)-2,3-dihydro-1H-inden-1-yl) carbamate] here?
A: 0.21 µM

Q: Which EC50 does the source give for O=C(Nc1ccc(F)c(Cl)c1)c1ccc(F)c2c1CC[C@@H]2NS(=O)(=O)c1ccccn1 [Compound 184, (S)—N-(3-Chloro-4-fluorophenyl)-7-fluoro-1-(pyridine-2-sulfonamido)-2,3-dihydro-1H-indene-4-carboxamide Hydrochloride] here?
A: 0.66 µM

Q: For O=C(N[C@H]1CCc2c(C(=O)Nc3ccc(F)c(Cl)c3)ccc(F)c21)OCC(F)(F)F [Compound 88, O-2,2,2-Trifluoroethyl, N—(S)-(4-((3-chloro-4-fluorophenyl)carbamoyl)-7-fluoro-2,3-dihydro-1H-inden-1-yl) carbamate], which EC50 is on record?
A: 0.21 µM

Q: How did the EC50 turn out when O=C(NCc1ccccn1)N[C@H]1CCc2c(C(=O)Nc3ccc(F)c(Cl)c3)ccc(F)c21 [Compound 149, (S)—N-(3-chloro-4-fluorophenyl)-7-fluoro-1-(3-(pyridin-2-ylmethyl)ureido)-2,3-dihydro-1H-indene-4-carboxamide Hydrochloride] was run?
A: 0.21 µM

Q: Which EC50 does the source give for COCCCOC(=O)N[C@H]1CCc2c(C(=O)Nc3ccc(F)c(Cl)c3)ccc(F)c21 [Compound 114, O-3-Methoxypropyl, N—(S)-(4-((3-chloro-4-fluorophenyl)carbamoyl)-7-fluoro-2,3-dihydro-1H-inden-1-yl) carbamate] here?
A: 0.47 µM

Q: How did the EC50 turn out when O=C(N[C@H]1CCc2c(C(=O)Nc3ccc(F)c(Cl)c3)ccc(F)c21)OCCn1ccnc1 [Compound 96, O-2-(1H-Imidazol-1-yl)ethyl, N—(S)-(4-((3-chloro-4-fluorophenyl)carbamoyl)-7-fluoro-2,3-dihydro-1H-inden-1-yl) carbamate Hydrochloride] was run?
A: 0.3 µM

Q: With O=C(N[C@H]1CCc2c(C(=O)Nc3ccc(F)c(Cl)c3)ccc(F)c21)OC[C@@H]1CCCO1 [Compound 142, O—((S)-Tetrahydrofuran-2-yl)methyl, N—((S)-4-((3-chloro-4-fluorophenyl)carbamoyl)-7-fluoro-2,3-dihydro-1H-inden-1-yl) carbamate] as the compound, how does the EC50 read?
A: 0.27 µM

Same assay, conditions: read-out: DE-19 bDNA EC50; HepDE19 cells, inhibition of rcDNA formation, 7 day incubation, top concentration 25 μM

Q: For CNC(=O)NC1c2c(F)ccc(C(=O)Nc3ccc(F)c(Cl)c3)c2CC1(C)C (single isomer, unassigned) [Compound 249, N-(3-Chloro-4-fluorophenyl)-7-fluoro-2,2-dimethyl-1-(3-methylureido)-2,3-dihydro-1H-indene-4-carboxamide], which EC50 is on record?
A: 13 µM

Q: How did the EC50 turn out when CNC(=O)NC1COc2c(C(=O)Nc3ccc(F)c(C)c3)ccc(F)c21 (single isomer, unassigned) [Compound 204, 4-Fluoro-N-(4-fluoro-3-methylphenyl)-3-(3-methylureido)-2,3-dihydrobenzofuran-7-carboxamide] was run?
A: 0.2 µM

Q: How did the EC50 turn out when COC(=O)NC1COc2c(C(=O)Nc3ccc(F)c(Cl)c3)ccc(F)c21 (stereo not drawn) [Compound 188, O-Methyl, N-(7-((3-chloro-4-fluorophenyl)carbamoyl)-4-fluoro-2,3-dihydrobenzofuran-3-yl) carbamate] was run?
A: 5.3 µM

Q: For COC(=O)NC1COc2c(C(=O)Nc3ccc(F)c(F)c3)cccc21 (stereo not drawn) [Compound 5, O-Methyl, N-(7-((3,4-difluorophenyl)carbamoyl)-2,3-dihydrobenzofuran-3-yl) carbamate], which EC50 is on record?
A: 14 µM

Q: With CNC(=O)NC1COc2c(C(=O)Nc3ccc(F)c(C)c3)ccc(F)c21 (single isomer, unassigned) [Compound 203, 4-Fluoro-N-(4-fluoro-3-methylphenyl)-3-(3-methylureido)-2,3-dihydrobenzofuran-7-carboxamide] as the compound, how does the EC50 read?
A: > 25 µM

Q: For CNC(=O)NC1COc2c(C(=O)Nc3ccc(F)c(Cl)c3)ccc(F)c21 (single isomer, unassigned) [Compound 190, N-(3-Chloro-4-fluorophenyl)-4-fluoro-3-(3-methylureido)-2,3-dihydrobenzofuran-7-carboxamide], which EC50 is on record?
A: > 25 µM
